Data from patent US20020137929A1, “1 - (3-heterocyclylphenyl) isothiourea, -isourea, -guanidine and -amidine herbicidal agents” (Intellectual Property Department, BASF Aktiengesellschaft, priority 1998, published 2002).

Tests used:
[1] = test system: ECHORC (Watergrass (Calif.)); test: Preemergence weed control under flooded paddy conditions; format: in vivo, Echinochloa oryzoides; details: rated 3-4 weeks after treatment
Summary of the method: (§1)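 Seeds or propagules sown in silt loam kept flooded 1.5-3 cm; compounds in 50/50 acetone/water pipetted into flood water at about 0.0313 to 0.500 kg/ha. Greenhouse; visual 0-9 rating versus untreated control 3-4 weeks after treatment.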

SETVI (Foxtail, Green) [2] = test: Preemergence herbicidal evaluation; format: in vivo, Setaria viridis; details: rated 4-5 weeks after treatment
Summary of the method: (§2)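 Seeds were planted in potting soil in cups, then sprayed preemergence with the test compound in aqueous acetone at about 0.0156 to 0.500 kg per hectare. Cups were kept under greenhouse conditions and visually rated 4–5 weeks after treatment on a 0–9 scale against an untreated control.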

CYPIR (Rice Flatsedge) = test: Preemergence weed control under flooded paddy conditions; format: in vivo, Cyperus iria; details: rated 3-4 weeks after treatment
Summary of the method: as §1

ABUTH (Velvetleaf) = test: Preemergence herbicidal evaluation; format: in vivo, Abutilon theophrasti; details: rated 4-5 weeks after treatment
Summary of the method: as §2

[3] = test system: IPOHE (Morningglory, Ivyleaf); test: Postemergence herbicidal evaluation; format: in vivo, Ipomoea hederacea; details: postemergence
Summary of the method: (§3)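 Young plants, roughly two weeks from seeding, receive the active ingredient as a sprayed dispersion (acetone/water 50/50, 0.5% TWEEN 20) at 40 psi. Doses span about 0.0156 to 0.500 kg/ha. A visual score from 0 to 9 compares treated with control plants four to five weeks on.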

GALAP (Galium) = test: Postemergence herbicidal evaluation; format: in vivo, Galium aparine; details: postemergence
Summary of the method: as §3

MOOVA (Monochoria) = test: Preemergence weed control under flooded paddy conditions; format: in vivo, Monochoria vaginalis; details: rated 3-4 weeks after treatment
Summary of the method: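 Herbicidal effect is scored visually on a 0-9 scale against an untreated control, three to four weeks after compounds are pipetted into the flood water (1.5 to 3 cm deep) over seeds planted in silt loam at 0.5 cm depth. Rates: about 0.0313 to 0.500 kg/ha.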

ZEAMX (Corn, Field) = test: Preemergence herbicidal evaluation; format: in vivo, Zea mays; details: rated 4-5 weeks after treatment
Summary of the method: as §2

[4] = test system: TRZAWR (Wheat, Winter, cv Riband); test: Postemergence herbicidal evaluation; format: in vivo, Triticum aestivum; details: postemergence
Summary of the method: as §3

ECHCG (Barnyardgrass) = test: Preemergence herbicidal evaluation; format: in vivo, Echinochloa crus-galli; details: rated 4-5 weeks after treatment
Summary of the method: as §2

SETVI (Foxtail, Green) [5] = test: Postemergence herbicidal evaluation; format: in vivo, Setaria viridis; details: postemergence
Summary of the method: as §3

[6] = test system: IPOHE (Morningglory, Ivyleaf); test: Preemergence herbicidal evaluation; format: in vivo, Ipomoea hederacea; details: rated 4-5 weeks after treatment
Summary of the method: as §2

[7] = rate 0.0156 kg/ha, rating scale 0-9
[8] = rate 0.0313 kg/ha, rating scale 0-9
[9] = rate 0.0625 kg/ha, rating scale 0-9
[10] = rate 0.1250 kg/ha, rating scale 0-9
[11] = rate 0.2500 kg/ha, rating scale 0-9

C#CC(C)N1C(=O)CSC1=Nc1cc(-n2c(=O)cc(C(F)(F)F)n(C)c2=O)c(F)cc1Cl (stereo not shown) [Compound 165, 3-{4-Chloro-2-fluoro-5-{[3-(1-methyl-2-propynyl)-4-oxo-2-thiazolidinylidene]amino}phenyl}-1-methyl-6-(trifluoromethyl)-2,4(1H,3H)-pyrimidinedione]
2.0: herbicidal rating SETVI (SETVI (Foxtail, Green) [5]; rate 0.0156 kg/ha) | Preemergence herbicidal rating IPOHE ([6]; 0.1250 kg/ha)
0.0: Preemergence herbicidal rating SETVI (SETVI (Foxtail, Green) [2]; 0.0156 kg/ha) | Preemergence herbicidal rating ABUTH (ABUTH (Velvetleaf); 0.0156 kg/ha) | Preemergence herbicidal rating ABUTH (ABUTH (Velvetleaf); 0.0313 kg/ha) | Preemergence herbicidal rating ABUTH (ABUTH (Velvetleaf); 0.0625 kg/ha) | herbicidal rating GALAP (GALAP (Galium); rate 0.0156 kg/ha) | Preemergence herbicidal rating ZEAMX (ZEAMX (Corn, Field); 0.0156 kg/ha) | Preemergence herbicidal rating ZEAMX (ZEAMX (Corn, Field); 0.0313 kg/ha) | Preemergence herbicidal rating ECHCG (ECHCG (Barnyardgrass); 0.0156 kg/ha) | Preemergence herbicidal rating ECHCG (ECHCG (Barnyardgrass); 0.0313 kg/ha) | Preemergence herbicidal rating ECHCG (ECHCG (Barnyardgrass); 0.0625 kg/ha) | Preemergence herbicidal rating IPOHE ([6]; 0.0156 kg/ha) | Preemergence herbicidal rating IPOHE ([6]; 0.0313 kg/ha)
5.0: herbicidal rating GALAP (GALAP (Galium); rate 0.1250 kg/ha) | herbicidal rating TRZAWR ([4]; rate 0.1250 kg/ha)
3.0: herbicidal rating TRZAWR ([4]; rate 0.0156 kg/ha) | herbicidal rating TRZAWR ([4]; rate 0.0313 kg/ha) | Preemergence herbicidal rating ECHCG (ECHCG (Barnyardgrass); 0.1250 kg/ha)
6.0: Preemergence herbicidal rating SETVI (SETVI (Foxtail, Green) [2]; 0.0313 kg/ha) | Preemergence herbicidal rating SETVI (SETVI (Foxtail, Green) [2]; 0.0625 kg/ha) | herbicidal effect rating, CYPIR (CYPIR (Rice Flatsedge); 0.0313 kg/ha) | Preemergence herbicidal rating ECHCG (ECHCG (Barnyardgrass); 0.2500 kg/ha) | herbicidal rating SETVI (SETVI (Foxtail, Green) [5]; rate 0.0313 kg/ha)
1.0: herbicidal rating GALAP (GALAP (Galium); rate 0.0313 kg/ha) | Preemergence herbicidal rating ZEAMX (ZEAMX (Corn, Field); 0.0625 kg/ha) | Preemergence herbicidal rating ZEAMX (ZEAMX (Corn, Field); 0.1250 kg/ha)
9.0: herbicidal effect rating, ECHORC ([1]; 0.0313 kg/ha) | herbicidal effect rating, ECHORC ([1]; 0.0625 kg/ha) | herbicidal effect rating, ECHORC ([1]; 0.1250 kg/ha) | herbicidal effect rating, ECHORC ([1]; 0.2500 kg/ha) | Preemergence herbicidal rating SETVI (SETVI (Foxtail, Green) [2]; 0.1250 kg/ha) | Preemergence herbicidal rating SETVI (SETVI (Foxtail, Green) [2]; 0.2500 kg/ha) | Preemergence herbicidal rating SETVI (SETVI (Foxtail, Green) [2]; 0.5000 kg/ha) | herbicidal effect rating, CYPIR (CYPIR (Rice Flatsedge); 0.1250 kg/ha) | herbicidal effect rating, CYPIR (CYPIR (Rice Flatsedge); 0.2500 kg/ha) | Preemergence herbicidal rating ABUTH (ABUTH (Velvetleaf); 0.1250 kg/ha) | Preemergence herbicidal rating ABUTH (ABUTH (Velvetleaf); 0.2500 kg/ha) | Preemergence herbicidal rating ABUTH (ABUTH (Velvetleaf); 0.5000 kg/ha) | herbicidal rating IPOHE ([3]; rate 0.0156 kg/ha) | herbicidal rating IPOHE ([3]; rate 0.0313 kg/ha) | herbicidal rating IPOHE ([3]; rate 0.0625 kg/ha) | herbicidal rating IPOHE ([3]; rate 0.1250 kg/ha) | herbicidal effect rating, MOOVA (MOOVA (Monochoria); 0.0313 kg/ha) | herbicidal effect rating, MOOVA (MOOVA (Monochoria); 0.0625 kg/ha) | herbicidal effect rating, MOOVA (MOOVA (Monochoria); 0.1250 kg/ha) | herbicidal effect rating, MOOVA (MOOVA (Monochoria); 0.2500 kg/ha) | herbicidal rating SETVI (SETVI (Foxtail, Green) [5]; rate 0.0625 kg/ha) | Preemergence herbicidal rating IPOHE ([6]; 0.2500 kg/ha) | Preemergence herbicidal rating IPOHE ([6]; 0.5000 kg/ha)
7.0: herbicidal effect rating, CYPIR (CYPIR (Rice Flatsedge); 0.0625 kg/ha) | Preemergence herbicidal rating ZEAMX (ZEAMX (Corn, Field); 0.5000 kg/ha) | Preemergence herbicidal rating ECHCG (ECHCG (Barnyardgrass); 0.5000 kg/ha) | herbicidal rating SETVI (SETVI (Foxtail, Green) [5]; rate 0.1250 kg/ha)
4.0: herbicidal rating GALAP (GALAP (Galium); rate 0.0625 kg/ha) | Preemergence herbicidal rating ZEAMX (ZEAMX (Corn, Field); 0.2500 kg/ha) | herbicidal rating TRZAWR ([4]; rate 0.0625 kg/ha)

Cn1c(C(F)(F)F)cc(=O)n(-c2cc(N=C3SCC(=O)N3Cc3cccc(C(F)(F)F)c3)c(Cl)cc2F)c1=O [Compound 142, 3-{4-Chloro-2-fluoro-5-{{3-[m-(trifluoromethyl)benzyl]-4-oxo-2-thiazolidinylidene}-amino}phenyl}-1-methyl-6-(trifluoromethyl)-2,4(1H,3H)-pyrimidinedione]
6.0: herbicidal effect rating, CYPIR (CYPIR (Rice Flatsedge); 0.1250 kg/ha) | herbicidal effect rating, MOOVA (MOOVA (Monochoria); 0.0313 kg/ha)
1.0: Preemergence herbicidal rating SETVI (SETVI (Foxtail, Green) [2]; [8]) | Preemergence herbicidal rating ABUTH (ABUTH (Velvetleaf); [8]) | Preemergence herbicidal rating ABUTH (ABUTH (Velvetleaf); [9]) | herbicidal rating GALAP (GALAP (Galium); rate 0.0313 kg/ha) | herbicidal rating GALAP (GALAP (Galium); rate 0.0625 kg/ha) | herbicidal rating SETVI (SETVI (Foxtail, Green) [5]; rate 0.0313 kg/ha) | Preemergence herbicidal rating IPOHE [6, 10]
9.0: Preemergence herbicidal rating ABUTH (ABUTH (Velvetleaf); [11]) | herbicidal rating IPOHE ([3]; rate 0.0625 kg/ha) | herbicidal effect rating, MOOVA (MOOVA (Monochoria); 0.1250 kg/ha)
5.0: herbicidal effect rating, ECHORC ([1]; 0.0625 kg/ha)
8.0: herbicidal effect rating, MOOVA (MOOVA (Monochoria); 0.2500 kg/ha)
4.0: herbicidal effect rating, ECHORC ([1]; 0.0313 kg/ha) | Preemergence herbicidal rating ABUTH (ABUTH (Velvetleaf); [10])
2.5: herbicidal rating TRZAWR ([4]; rate 0.0156 kg/ha) | herbicidal rating TRZAWR ([4]; rate 0.0313 kg/ha) | herbicidal rating TRZAWR ([4]; rate 0.0625 kg/ha)
7.0: herbicidal effect rating, ECHORC ([1]; 0.1250 kg/ha) | herbicidal effect rating, ECHORC ([1]; 0.2500 kg/ha) | Preemergence herbicidal rating SETVI (SETVI (Foxtail, Green) [2]; [11]) | herbicidal effect rating, CYPIR (CYPIR (Rice Flatsedge); 0.2500 kg/ha) | herbicidal rating IPOHE ([3]; rate 0.0156 kg/ha) | herbicidal rating IPOHE ([3]; rate 0.0313 kg/ha) | herbicidal effect rating, MOOVA (MOOVA (Monochoria); 0.0625 kg/ha)
3.0: herbicidal rating SETVI (SETVI (Foxtail, Green) [5]; rate 0.0625 kg/ha)
0.0: Preemergence herbicidal rating SETVI (SETVI (Foxtail, Green) [2]; [7]) | Preemergence herbicidal rating SETVI (SETVI (Foxtail, Green) [2]; [9]) | herbicidal effect rating, CYPIR (CYPIR (Rice Flatsedge); 0.0313 kg/ha) | Preemergence herbicidal rating ABUTH (ABUTH (Velvetleaf); [7]) | herbicidal rating GALAP (GALAP (Galium); rate 0.0156 kg/ha) | Preemergence herbicidal rating ZEAMX (ZEAMX (Corn, Field); [7]) | Preemergence herbicidal rating ZEAMX (ZEAMX (Corn, Field); [8]) | Preemergence herbicidal rating ZEAMX (ZEAMX (Corn, Field); [9]) | Preemergence herbicidal rating ECHCG (ECHCG (Barnyardgrass); [7]) | Preemergence herbicidal rating ECHCG (ECHCG (Barnyardgrass); [8]) | Preemergence herbicidal rating ECHCG (ECHCG (Barnyardgrass); [9]) | Preemergence herbicidal rating ECHCG (ECHCG (Barnyardgrass); [10]) | Preemergence herbicidal rating ECHCG (ECHCG (Barnyardgrass); [11]) | Preemergence herbicidal rating IPOHE [6, 7] | Preemergence herbicidal rating IPOHE [6, 8] | Preemergence herbicidal rating IPOHE [6, 9]
2.0: Preemergence herbicidal rating SETVI (SETVI (Foxtail, Green) [2]; [10]) | herbicidal effect rating, CYPIR (CYPIR (Rice Flatsedge); 0.0625 kg/ha) | Preemergence herbicidal rating ZEAMX (ZEAMX (Corn, Field); [10]) | Preemergence herbicidal rating ZEAMX (ZEAMX (Corn, Field); [11]) | herbicidal rating SETVI (SETVI (Foxtail, Green) [5]; rate 0.0156 kg/ha) | Preemergence herbicidal rating IPOHE [6, 11]
